Experimental data from PubChem BioAssay (NCI).
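Five compound concentrations were applied to cells in 96-well plates for 48 hours; endpoints were derived by simple linear interpolation of the resulting dose-response curve. Abbreviation: GI50, concentration required for 50% inhibition of growth. At the TGI there is no net growth.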

Key:
Experiment in all cases: NCI tumour cell line growth inhibition, 48 h
DMS 114 small cell lung = test system: DMS 114 small cell lung
HOP-18 NSCLC = test system: HOP-18 NSCLC
M19-MEL melanoma = test system: M19-MEL melanoma
P388 leukemia = test system: P388 leukemia
P388/ADR leukemia = test system: P388/ADR leukemia
SN12K1 renal = test system: SN12K1 renal
XF 498 CNS = test system: XF 498 CNS
LXFL 529 NSCLC = test system: LXFL 529 NSCLC
RXF-631 renal = test system: RXF-631 renal

`CCCCCCCCCCCCCCCCOCC(COP(=O)([O-])OCC[N+](C)(C)C)OCCCCCCCCCCCCCCCC` (centres undefined) was tested, and the TGI (DMS 114 small cell lung) was over 100 µM, the TGI (HOP-18 NSCLC) was over 100 µM and the TGI (M19-MEL melanoma) was over 100 µM. For the same compound, the TGI (P388 leukemia) was over 100 µM, the TGI (P388/ADR leukemia) was over 100 µM and the TGI (SN12K1 renal) was over 100 µM. It also gave a TGI (XF 498 CNS) of over 100 µM.

With `Clc1c(Cl)c2c(Cl)c(Cl)c1C[P+](c1ccccc1)(c1ccccc1)CC[P+](c1ccccc1)(c1ccccc1)Cc1c(Cl)c(Cl)c(c(Cl)c1Cl)C[P+](c1ccccc1)(c1ccccc1)CC[P+](c1ccccc1)(c1ccccc1)C2` the TGI (DMS 114 small cell lung) was 3.7 µM, the TGI (HOP-18 NSCLC) was 20.6 µM and the TGI (LXFL 529 NSCLC) was 8.12 µM. For the same compound, the TGI (M19-MEL melanoma) was 9.91 µM and the TGI (RXF-631 renal) was 23.7 µM.

Work on `CCO[C@]12C[C@H](OC)[C@@]3(O)CC(C1[C@H]3O)C13C4C2[C@H](OC)C1[C@](COC)(CN4CC)[C@H](O)C[C@@H]3OC` (some centres undefined) yielded a TGI (DMS 114 small cell lung) of over 100 µM, a TGI (LXFL 529 NSCLC) of over 100 µM and a TGI (M19-MEL melanoma) of over 100 µM.

Work on `CC#C[I+]c1ccccc1` yielded a TGI (DMS 114 small cell lung) of 26.3 µM, a TGI (HOP-18 NSCLC) of 34.4 µM and a TGI (LXFL 529 NSCLC) of 27.1 µM. The TGI (M19-MEL melanoma) was 45 µM, the TGI (RXF-631 renal) was over 100 µM and the TGI (XF 498 CNS) was 33.5 µM.

Work on `O=[N+]([O-])O.[Ga]` yielded a GI50 (HOP-18 NSCLC) of 5210 µM, a TGI (HOP-18 NSCLC) of over 9360 µM and a GI50 (P388 leukemia) of 1680 µM. It also gave a TGI (P388 leukemia) of over 10000 µM, a GI50 (P388/ADR leukemia) of 712 µM and a TGI (P388/ADR leukemia) of over 3030 µM. The GI50 (SN12K1 renal) was 1210 µM and the TGI (SN12K1 renal) was 6000 µM.

With `CCCCN1C(=O)NC(Cc2ccccc2)C1=O` (centres undefined) the TGI (DMS 114 small cell lung) was over 100 µM, the TGI (HOP-18 NSCLC) was over 100 µM and the TGI (LXFL 529 NSCLC) was over 100 µM. It also gave a TGI (M19-MEL melanoma) of over 100 µM and a TGI (XF 498 CNS) of over 100 µM.
